We go through one compound from patent US9242977B2, “Trk-inhibiting compound” (ONO PHARMACEUTICAL CO., LTD., priority 2012, dated 2016).

The target in one assay is Abl (Homo sapiens (Human), UniProt P00519). Put plainly: Enzyme inhibition activity test for kinases other than Trk (selectivity test): Abl. Conditions: test concentration 3 μM; read-out: Inhibition Rate (%) Abl. The assay is classed as biochemical. The protocol: (§1) A test substance (present compound or comparative compound) was dissolved in dimethylsulfoxide and further diluted with dimethylsulfoxide to prepare a solution having a concentration of 100 times the test concentration of 3 μM. The solution was further diluted to 25-fold with an assay buffer (20 mM HEPES, 0.01% Triton X-100, 2 mM DTT, pH 7.5) to obtain a test substance solution. In a similar manner a positive control substance solution was prepared with a positive control substance.
(§2) A 4-times concentration solution (5 μL) of the test substance prepared with the assay buffer, 5 μL of a 4-times concentration solution of substrate/ATP/metal (Mg) and 10 μL of a 2-times concentration solution of kinase were mixed in a well of a polypropylene 384-well plate and allowed to react at room temperature for 1 hour. The reaction was terminated by adding 60 μL of a Termination Buffer (QuickScout Screening Assist MSA; Carna Biosciences). The substrate peptide and the phosphorylated peptide in the reaction solution were separated and quantified. The kinase reaction was assessed from the product ratio (P/(P+S)) calculated from the height (S) of the peak of the substrate peptide and the height (P) of the peak of the phosphorylated peptide. Other kinases used in the kinase selectivity experiments were, for example, Abl, c-Met, b-Raf, c-Kit and KDR. The following Table 2 indicates substrates, substrate concentrations, ATP concentrations and positive control substances used in respective kinase enzyme inhibition activity tests.
(§3) The inhibition rate was calculated from the average signal intensity of the test wells containing respective test substances provided that the average signal intensity of control wells each containing all reaction components was 0% inhibition and the average signal intensity of background wells (without addition of the enzyme) was 100% inhibition.

For assay [1], the system named is NGF-induced vascular hyper permeability. Put plainly: Suppression of rat NGF-induced vascular hyper permeability (in vivo test, Evans Blue). Conditions: oral, 12 hours after administration, read-out: Rates of Suppression for Vascular Hyper Permeability (%). The protocol: TrkA-inhibiting activity of the present compound was evaluated in vivo. The present compound dissolved in a medium was orally administered (adminstered volume: 5 mL/kg) to male CD(SD)IGS rats (7- to 9-week old, Charles River laboratories Japan, Inc.) shaved on the back. A medium was orally administered (adminstered volume: 5 mL/kg) to the control and normal groups. After 6 or 12 hours of administration, 3 μg/mL of a NGF (Mouse 2.5s, Natural, Invitrogen) solution prepared in 0.1% BSA (Sigma-Aldrich)-containing saline was intracutaneously administered (dose; 50 μL/site) at 3 sites on the back of animals under halothane anesthesia. For the normal group, 0.1% BSA-containing saline was intracutaneously administered (dose; 50 μL/site) at 3 sites on the back. Immediately after intracutaneous administration, 1% Evans Blue (Tokyo Chemical Industry Co., Ltd.) was administered intravenously from tail (adminstered volume: 3 mL/kg). After 10 minutes of administration, the animals were sacrificed by bleeding due to incision of the abdominal aorta. The sites of intracutaneous administration on the back (3 sites) were excised and the skin samples were respectively transferred to the wells in a 48-well plate (Asahi Glass Co., Ltd.). Formamide (0.8 mL/well) was added to the plate and the plate was sealed and incubated overnight at 60° C. The formamide extraction solution (200 μL) was transferred to a 96-well plate and the absorbance (wavelength: 620 nm) of Evans Blue extracted in formamide was measured on an absorbance microplate reader (SpectraMAX 190, Molecular Devices Japan, K.K.). Standard samples of Evans Blue dissolved in formamide (0, 0.78, 1.56, 3.13, 6.25, 12.5, 25 and 50 μg/mL) were measured at the same time for the absorbance (wavelength: 620 nm) to generate a calibration curve. Based on the calibration curve and the absorbances of samples, the concentrations of Evans Blue in the sample was calculated. The concentrations of Evans Blue for three skin samples collected from one aminal were averaged to obtain the vale for the animal. The rate of suppression for rat NGF-induced vascular hyper permeability of the present compound was calculated according to the following Equation 4: Suppression rate (%)=(1−(AX−AN)/(AC−AN)}×100 Equation 4
wherein AX: the concentration of Evans Blue of the test compound (an average value of 3 samples from one animal);
AN: the concentration of Evans Blue of the normal group (an average value of 3 samples from one animal);
AC: the concentration of Evans Blue of the control group (an average value of 3 samples from one animal).

The next assay deals with c-Met (Homo sapiens (Human), UniProt P08581). The assay can be described thus: Enzyme inhibition activity test for kinases other than Trk (selectivity test): c-Met. In kind it is biochemical. Conditions: test concentration 3 μM; read-out: Inhibition Rate (%) c-Met. The protocol: as §1, §2, §3
The next assay concerns the target KDR (Homo sapiens (Human), UniProt P35968). Put plainly: Enzyme inhibition activity test for kinases other than Trk (selectivity test): KDR. In kind it is biochemical. Conditions: test concentration 3 μM; read-out: Inhibition Rate (%) KDR. As to the method: as §1, §2, §3
Another assay addresses c-Kit (Homo sapiens (Human), UniProt P10721). The assay can be described thus: Enzyme inhibition activity test for kinases other than Trk (selectivity test): c-Kit. In kind it is biochemical. Conditions: test concentration 3 μM; read-out: Inhibition Rate (%) c-Kit. The protocol: as §1, §2, §3
Another assay concerns the target b-Raf (Homo sapiens (Human), UniProt P15056). Put plainly: Enzyme inhibition activity test for kinases other than Trk (selectivity test): b-Raf. The assay is classed as biochemical. Conditions: test concentration 3 μM; read-out: Inhibition Rate (%) b-Raf. The protocol: as §1, §2, §3

Sequence of b-Raf (P15056 whole entry): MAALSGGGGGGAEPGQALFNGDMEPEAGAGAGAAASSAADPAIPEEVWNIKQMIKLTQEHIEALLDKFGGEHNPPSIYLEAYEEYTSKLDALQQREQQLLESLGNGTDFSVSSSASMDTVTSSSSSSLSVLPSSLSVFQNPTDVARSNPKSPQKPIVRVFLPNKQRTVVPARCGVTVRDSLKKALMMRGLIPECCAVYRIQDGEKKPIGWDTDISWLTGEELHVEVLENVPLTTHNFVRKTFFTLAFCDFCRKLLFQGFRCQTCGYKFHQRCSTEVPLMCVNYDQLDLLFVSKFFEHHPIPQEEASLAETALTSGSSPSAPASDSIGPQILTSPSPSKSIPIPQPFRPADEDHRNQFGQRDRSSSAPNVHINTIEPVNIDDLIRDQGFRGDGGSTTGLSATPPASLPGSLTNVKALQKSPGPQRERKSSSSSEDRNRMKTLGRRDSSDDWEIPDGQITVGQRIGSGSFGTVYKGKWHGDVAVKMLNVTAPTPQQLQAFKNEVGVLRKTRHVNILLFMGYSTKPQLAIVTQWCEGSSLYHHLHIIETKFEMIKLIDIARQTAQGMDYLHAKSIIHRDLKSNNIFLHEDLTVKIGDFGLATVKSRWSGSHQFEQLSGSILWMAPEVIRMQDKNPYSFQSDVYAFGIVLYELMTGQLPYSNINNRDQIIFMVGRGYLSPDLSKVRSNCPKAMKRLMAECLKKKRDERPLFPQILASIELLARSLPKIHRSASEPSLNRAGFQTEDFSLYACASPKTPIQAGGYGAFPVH
Sequence of c-Met (P08581 25-1390): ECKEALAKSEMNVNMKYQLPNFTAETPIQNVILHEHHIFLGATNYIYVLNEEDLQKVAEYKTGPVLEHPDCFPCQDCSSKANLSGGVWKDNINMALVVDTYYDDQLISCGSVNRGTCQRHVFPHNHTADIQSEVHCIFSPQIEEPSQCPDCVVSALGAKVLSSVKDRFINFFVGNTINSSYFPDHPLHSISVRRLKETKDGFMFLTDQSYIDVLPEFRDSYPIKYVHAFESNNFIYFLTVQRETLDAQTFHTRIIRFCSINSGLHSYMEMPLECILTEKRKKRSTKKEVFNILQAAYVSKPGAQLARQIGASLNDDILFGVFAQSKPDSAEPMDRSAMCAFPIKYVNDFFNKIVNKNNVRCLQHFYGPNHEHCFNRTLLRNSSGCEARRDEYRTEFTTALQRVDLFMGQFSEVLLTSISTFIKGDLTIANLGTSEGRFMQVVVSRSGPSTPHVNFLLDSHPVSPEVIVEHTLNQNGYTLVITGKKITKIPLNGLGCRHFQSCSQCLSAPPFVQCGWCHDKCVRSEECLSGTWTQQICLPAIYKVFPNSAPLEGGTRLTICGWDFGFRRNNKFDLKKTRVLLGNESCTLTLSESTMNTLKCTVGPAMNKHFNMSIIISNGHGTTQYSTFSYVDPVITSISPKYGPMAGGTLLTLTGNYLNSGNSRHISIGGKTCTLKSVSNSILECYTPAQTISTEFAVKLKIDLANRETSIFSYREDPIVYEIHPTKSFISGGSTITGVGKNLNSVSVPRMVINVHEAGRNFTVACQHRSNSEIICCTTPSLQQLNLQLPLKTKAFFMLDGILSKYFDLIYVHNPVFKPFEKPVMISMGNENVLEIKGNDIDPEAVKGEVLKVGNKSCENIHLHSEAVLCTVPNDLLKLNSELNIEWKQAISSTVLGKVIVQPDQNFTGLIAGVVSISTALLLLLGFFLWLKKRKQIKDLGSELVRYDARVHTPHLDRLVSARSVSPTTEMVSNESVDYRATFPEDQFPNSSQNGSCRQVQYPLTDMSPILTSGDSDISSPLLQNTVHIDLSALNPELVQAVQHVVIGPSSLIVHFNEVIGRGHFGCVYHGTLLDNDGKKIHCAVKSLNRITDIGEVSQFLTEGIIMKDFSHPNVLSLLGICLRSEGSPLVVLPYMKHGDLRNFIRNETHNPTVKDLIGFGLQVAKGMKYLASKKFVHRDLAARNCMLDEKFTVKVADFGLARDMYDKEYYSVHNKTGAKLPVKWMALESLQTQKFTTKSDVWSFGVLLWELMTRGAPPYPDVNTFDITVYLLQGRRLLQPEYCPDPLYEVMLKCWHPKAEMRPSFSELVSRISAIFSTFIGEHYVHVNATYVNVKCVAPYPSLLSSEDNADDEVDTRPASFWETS
Sequence of Abl (P00519 whole entry): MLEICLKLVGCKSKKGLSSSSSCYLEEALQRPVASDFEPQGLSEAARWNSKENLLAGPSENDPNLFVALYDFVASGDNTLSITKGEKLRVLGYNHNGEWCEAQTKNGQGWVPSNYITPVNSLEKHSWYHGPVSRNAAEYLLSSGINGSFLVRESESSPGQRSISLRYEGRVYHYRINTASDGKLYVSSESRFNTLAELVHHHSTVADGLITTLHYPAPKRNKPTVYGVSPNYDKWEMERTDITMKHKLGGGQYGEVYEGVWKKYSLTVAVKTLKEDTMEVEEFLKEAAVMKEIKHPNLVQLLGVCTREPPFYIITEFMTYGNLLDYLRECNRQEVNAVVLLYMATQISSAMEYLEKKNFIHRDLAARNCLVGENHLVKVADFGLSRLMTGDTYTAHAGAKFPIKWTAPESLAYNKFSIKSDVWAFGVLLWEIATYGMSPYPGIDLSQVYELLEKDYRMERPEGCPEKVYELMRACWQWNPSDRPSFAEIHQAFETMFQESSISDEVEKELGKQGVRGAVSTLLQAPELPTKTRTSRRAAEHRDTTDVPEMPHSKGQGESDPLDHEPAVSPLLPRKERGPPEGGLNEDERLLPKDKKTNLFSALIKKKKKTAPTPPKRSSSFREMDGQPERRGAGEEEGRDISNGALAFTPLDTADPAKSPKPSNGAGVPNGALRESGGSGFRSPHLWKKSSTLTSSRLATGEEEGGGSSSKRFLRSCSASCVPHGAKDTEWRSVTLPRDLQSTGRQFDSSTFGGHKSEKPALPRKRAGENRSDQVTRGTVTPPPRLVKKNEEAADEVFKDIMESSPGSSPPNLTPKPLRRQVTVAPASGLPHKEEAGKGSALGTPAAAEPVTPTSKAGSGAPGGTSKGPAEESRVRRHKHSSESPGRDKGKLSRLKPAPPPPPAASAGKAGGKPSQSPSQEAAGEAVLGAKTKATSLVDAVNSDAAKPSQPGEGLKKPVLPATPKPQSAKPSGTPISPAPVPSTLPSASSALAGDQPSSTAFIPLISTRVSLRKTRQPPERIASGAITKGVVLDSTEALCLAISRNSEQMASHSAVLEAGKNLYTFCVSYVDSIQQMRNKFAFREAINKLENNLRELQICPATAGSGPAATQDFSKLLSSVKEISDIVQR
Sequence of KDR (P35968 20-1356): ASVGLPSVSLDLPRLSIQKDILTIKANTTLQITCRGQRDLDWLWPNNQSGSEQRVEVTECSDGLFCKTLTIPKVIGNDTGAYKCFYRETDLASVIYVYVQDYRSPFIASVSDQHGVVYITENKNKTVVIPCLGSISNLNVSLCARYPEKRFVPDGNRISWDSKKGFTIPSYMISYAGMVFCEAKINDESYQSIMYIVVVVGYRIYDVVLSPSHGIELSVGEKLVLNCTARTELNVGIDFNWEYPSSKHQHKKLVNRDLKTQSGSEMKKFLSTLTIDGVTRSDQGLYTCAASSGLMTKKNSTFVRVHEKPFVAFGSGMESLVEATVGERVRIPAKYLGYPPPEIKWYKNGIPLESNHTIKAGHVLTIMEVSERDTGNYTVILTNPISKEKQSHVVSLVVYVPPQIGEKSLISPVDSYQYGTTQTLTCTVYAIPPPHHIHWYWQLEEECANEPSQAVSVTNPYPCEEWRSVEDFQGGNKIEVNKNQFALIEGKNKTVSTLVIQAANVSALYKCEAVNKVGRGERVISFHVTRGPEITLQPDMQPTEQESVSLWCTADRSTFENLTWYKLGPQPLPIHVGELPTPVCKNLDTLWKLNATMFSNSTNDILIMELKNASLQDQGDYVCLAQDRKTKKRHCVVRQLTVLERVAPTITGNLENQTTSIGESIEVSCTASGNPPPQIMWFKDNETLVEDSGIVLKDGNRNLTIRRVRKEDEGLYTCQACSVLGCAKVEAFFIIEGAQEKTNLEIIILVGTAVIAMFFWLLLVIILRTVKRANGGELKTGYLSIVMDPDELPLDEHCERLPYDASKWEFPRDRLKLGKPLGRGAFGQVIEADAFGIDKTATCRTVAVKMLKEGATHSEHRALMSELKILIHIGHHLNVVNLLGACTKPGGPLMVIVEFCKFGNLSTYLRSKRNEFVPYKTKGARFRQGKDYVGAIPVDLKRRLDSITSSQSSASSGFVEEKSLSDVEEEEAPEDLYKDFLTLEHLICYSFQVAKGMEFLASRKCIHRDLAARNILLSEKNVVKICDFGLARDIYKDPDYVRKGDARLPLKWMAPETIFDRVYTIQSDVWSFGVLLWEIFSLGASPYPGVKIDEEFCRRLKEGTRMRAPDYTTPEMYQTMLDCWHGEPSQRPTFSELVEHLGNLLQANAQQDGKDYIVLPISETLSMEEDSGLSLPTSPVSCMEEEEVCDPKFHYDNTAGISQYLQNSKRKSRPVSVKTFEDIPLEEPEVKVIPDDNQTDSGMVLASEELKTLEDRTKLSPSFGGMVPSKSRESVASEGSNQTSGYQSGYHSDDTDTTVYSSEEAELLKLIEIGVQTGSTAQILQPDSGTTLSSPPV

One may read the inhibition as the relative decrease from the control value, in per cent. On to `O=C(Nc1cnc(Oc2ccc(-c3cnc(N4CCCC4=O)s3)cc2)nc1)Nc1cc(C(F)(F)F)ccc1-c1cccnc1` [Example 84-3, 1-(2-{4-[2-(2-oxo-1-pyrrolidinyl)-1,3-thiazol-5-yl]phenoxy}-5-pyrimidinyl)-3-[2-(3-pyridinyl)-5-(trifluoromethyl)phenyl]urea], for which the inhibition at 3 µM came out at 5.6% at Abl; 11% at c-Met; 5.2% on KDR; 28% at c-Kit; 36% at b-Raf. The inhibition in vivo at 1 mg/kg in assay [1] came to 94%.
